Source: PubChem BioAssay AID226 (DTP/NCI, 2004)
Values joined by “and” are separate entries in the source; they are usually repeats but may differ in a detail not shown here. Identical values can stand only once. Inconclusive results and toxic doses are left out.

System: B6C3F1 mice, intracerebral ependymoblastoma, median survival T/C
Experiment: NCI In Vivo Anticancer Drug Screen. Data for tumor model Ependymoblastoma (intracerebral) in B6C3F1 mice
Details: endpoint: median survival time, higher = longer survival
Method: The antitumor activity of compounds was measured in mice bearing transplantable tumors. Survival or tumor size were measured and the results are expressed as the measurement made in the treated group (T) divided by the measurement made in the vehicle treated control group (C). The tumor model used in this assay is Ependymoblastoma (intracerebral) in B6C3F1 mice

[1] = dose: 32.0 mg/kg/injection, schedule: Q01DX005 (ip), vehicle: Klucel (hydroxypropylcellulose) (HPC)
[2] = dose: 64.0 mg/kg/injection, schedule: Q01DX005 (ip), vehicle: Klucel (hydroxypropylcellulose) (HPC)
[3] = dose: 128.0 mg/kg/injection, schedule: Q01DX005 (ip), vehicle: Klucel (hydroxypropylcellulose) (HPC)
[4] = dose: 256.0 mg/kg/injection, schedule: Q01DX005 (ip), vehicle: Klucel (hydroxypropylcellulose) (HPC)
[5] = dose: 16.0 mg/kg/injection, schedule: Q01DX005 (ip), vehicle: saline with Tween-80
[6] = dose: 16.0 mg/kg/injection, schedule: Q01DX005 (ip), vehicle: saline
[7] = dose: 32.0 mg/kg/injection, schedule: Q01DX005 (ip), vehicle: saline with Tween-80
[8] = dose: 32.0 mg/kg/injection, schedule: Q01DX005 (ip), vehicle: saline
[9] = dose: 64.0 mg/kg/injection, schedule: Q01DX005 (ip), vehicle: saline with Tween-80
[10] = dose: 64.0 mg/kg/injection, schedule: Q01DX005 (ip), vehicle: saline
[11] = dose: 128.0 mg/kg/injection, schedule: Q01DX005 (ip), vehicle: saline

O=C(O)C1(C(=O)O)CCC1.[NH2-].[NH2-].[Pt+2]
T/C (dose: 16.0 mg/kg/injection, schedule: Q01DX005 (ip), vehicle: dextrose): 110 % of control and 118 % of control | T/C (dose: 32.0 mg/kg/injection, schedule: Q01DX005 (ip), vehicle: dextrose): 119 % of control and 120 % of control

CCCCCCC(=O)O[C@H]1CC[C@H]2[C@@H]3CCC4=CC(=O)CC[C@]4(C)[C@H]3CC[C@]12C
T/C (dose: 8.0 mg/kg/injection, schedule: Q01DX005 (ip), vehicle: Klucel (hydroxypropylcellulose) (HPC)): 101 % of control and 110 % of control | T/C (dose: 16.0 mg/kg/injection, schedule: Q01DX005 (ip), vehicle: Klucel (hydroxypropylcellulose) (HPC)): 92 % of control and 100 % of control | T/C [1]: 95 % of control and 110 % of control | T/C [2]: 108 % of control and 89 % of control | T/C [3]: 95 % of control and 96 % of control | T/C [4]: 97 % of control

CN(Cc1cnc2nc(N)nc(N)c2n1)c1c(Cl)cc(C(=O)NC(CCC(=O)O)C(=O)O)cc1Cl (centres undefined)
T/C [5]: 95 % of control and 114 % of control | T/C [6]: 100 % of control | T/C [1]: 100 % of control | T/C [7]: 97 % of control and 107 % of control | T/C [8]: 92 % of control and 103 % of control | T/C [2]: 104 % of control | T/C [9]: 100 % of control and 107 % of control | T/C [10]: 101 % of control and 104 % of control | T/C [3]: 89 % of control | T/C (dose: 128.0 mg/kg/injection, schedule: Q01DX005 (ip), vehicle: saline with Tween-80): 98 % of control and 100 % of control | T/C [11]: 100 % of control and 106 % of control | T/C [4]: 96 % of control

Cc1ncc(CNC(=O)N(CCCl)N=O)c(N)n1
T/C (dose: 8.0 mg/kg/injection, schedule: Q01DX001 (ip), vehicle: water): 108 % of control and 121 % of control | T/C (dose: 16.0 mg/kg/injection, schedule: Q01DX001 (ip), vehicle: water): 175 % of control | T/C (dose: 32.0 mg/kg/injection, schedule: Q01DX001 (ip), vehicle: water): 262 % of control and 267 % of control

Nc1nc(=S)c2ncn(C3CC(O)C(CO)O3)c2[nH]1 (centres undefined)
T/C (dose: 4.0 mg/kg/injection, schedule: Q01DX005 (ip), vehicle: saline with Tween-80): 93 % of control and 96 % of control | T/C (dose: 8.0 mg/kg/injection, schedule: Q01DX005 (ip), vehicle: saline with Tween-80): 103 % of control | T/C [5]: 92 % of control | T/C [7]: 91 % of control and 102 % of control | T/C [9]: 100 % of control and 90 % of control

Nc1ccn(C2OC(COP(=O)(O)O)C(O)C2O)c(=O)n1 (centres undefined)
T/C [6]: 96 % of control | T/C [8]: 95 % of control | T/C [10]: 107 % of control | T/C [11]: 112 % of control

CN(C)N=Nc1ccc(C(N)=O)cc1
T/C [5]: 156 % of control | T/C [7]: 162 % of control
